Laboratory results as given in the SangsterLogP compilation.

SMILES	logP
Nc1ccc(-c2nc(Cc3ccccc3)no2)cc1	3.24
CCc1nnc(-c2ccc(N)cc2)o1	1.92
CCCc1nc(-c2ccc(N)cc2)no1	2.54
CCc1nsc(-c2ccc(N)cc2)n1	2.39
CCCc1noc(-c2ccc(N)cc2)n1	2.61
CC(C)(C)c1nnc(-c2ccc(N)cc2)o1	2.53
CC(C)c1nnc(-c2ccc(N)cc2)o1	2.23
CCCc1nnc(-c2ccc(N)cc2)o1	2.27
Nc1ccc(-c2nnc(Cc3ccccc3)o2)cc1	2.82
Cc1nnc(-c2ccc(N)cc2)o1	1.63
Cc1noc(-c2ccc(N)cc2)n1	1.89
Cc1nc(-c2ccc(N)cc2)no1	1.71
CCCc1nnc(-c2ccc(N)cc2)s1	2.53
CC(C)c1noc(-c2ccc(N)cc2)n1	2.57
CCc1nc(-c2ccc(N)cc2)no1	2.13
CCCCC(=O)c1ccc(N)cc1	2.48
Nc1ccc(-c2nnc(-c3ccccc3)o2)cc1	2.91
Nc1ccc(-c2nc(-c3ccccc3)no2)cc1	3.48
CCCCc1nnc(-c2ccc(N)cc2)o1	2.66
CCC(=O)c1ccc(N)cc1	1.65
CCc1noc(-c2ccc(N)cc2)n1	2.22
